We go through six compounds from PubChem BioAssay (NCI).

Structures are written as SMILES. “And” between values parts separate entries of the source, which are not always exact repeats. Equal values may be shown once.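 Five concentrations, 48 hours, 96-well plates. GI50 is the concentration that inhibits growth by half. TGI denotes the concentration required for complete inhibition of growth.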 A value given as a limit tells only on which side of the number the result lay.

Some test systems named below: CCRF-CEM leukemia; HOP-62 NSCLC; EKVX NSCLC; SR leukemia; HCC-2998 colon; SNB-19 CNS; SK-OV-3 ovarian; ACHN renal; SK-MEL-5 melanoma; MDA-MB-231 breast.
Holding throughout (experiment): DTP human tumour cell line panel, 48 h

For `CN1CCN(CCCOC(=O)c2c3c(n4ccccc24)C(=O)c2ncccc2C3=O)CC1`, the GI50 (as a rule, the concentration that inhibits growth by half) was 0.041 µM in the test with CCRF-CEM leukemia; < 0.01 µM with HOP-62 NSCLC; 0.0456 µM in the test with EKVX NSCLC; < 0.01 µM with SR leukemia; < 0.0135 µM in the test with HCC-2998 colon; < 0.01 µM in the test on SNB-19 CNS. Moreover, the GI50 in the test on SK-OV-3 ovarian was < 0.01 µM; with ACHN renal it was < 0.01 µM; in the test on SK-MEL-5 melanoma, 0.0269 µM; with MDA-MB-231 breast, 2.53 µM. In addition, the TGI (in general, the concentration at which net growth stops) in the test with CCRF-CEM leukemia is > 30.4 µM; with HOP-62 NSCLC, 0.0393 µM; in the test on EKVX NSCLC, 12.6 µM; in the test with SR leukemia, > 100 µM; with HCC-2998 colon, 1.98 µM; with SNB-19 CNS, 1.45 µM. The TGI came out at 0.0278 µM in the test on SK-OV-3 ovarian, 0.0154 µM with ACHN renal, 0.592 µM with SK-MEL-5 melanoma and 37.2 µM with MDA-MB-231 breast.

Turning to `CCN(CC)CCN1C(=O)C2C3C(C)=CC(OC(C)=O)(CC3C)C2C1=O` (stereo not drawn), the GI50 in the test on CCRF-CEM leukemia, in the test on HOP-62 NSCLC, with EKVX NSCLC, with SR leukemia, in the test on HCC-2998 colon and with SNB-19 CNS was > 100 µM throughout. Also, the GI50 in the test on SK-OV-3 ovarian, in the test on ACHN renal, in the test on SK-MEL-5 melanoma and in the test with MDA-MB-231 breast was > 100 µM each time. Besides, the TGI in the test on CCRF-CEM leukemia, in the test with HOP-62 NSCLC, with EKVX NSCLC, in the test with SR leukemia, with HCC-2998 colon and in the test on SNB-19 CNS was > 100 µM throughout. Besides, the TGI with SK-OV-3 ovarian, in the test on ACHN renal, in the test with SK-MEL-5 melanoma and in the test with MDA-MB-231 breast was > 100 µM in each case.

In the case of `CN1CCN(c2ccc3nc(-c4[nH]ncc4Nc4ncnc5[nH]ccc45)[nH]c3c2)CC1`, the 50% growth inhibitory concentration (GI50) in the test with CCRF-CEM leukemia is 0.171 µM; in the test with HOP-62 NSCLC it was 0.381 µM; in the test on EKVX NSCLC it was 0.34 µM; in the test with SR leukemia it was 0.0472 µM; in the test on HCC-2998 colon, 0.375 µM; in the test on SNB-19 CNS, 0.349 µM. The GI50 was 0.371 µM in the test on SK-OV-3 ovarian, 0.394 µM with ACHN renal, 0.367 µM in the test on SK-MEL-5 melanoma and 0.184 µM in the test on MDA-MB-231 breast. Besides, the TGI in the test on CCRF-CEM leukemia turned out to be 22.3 µM; in the test with HOP-62 NSCLC, 4.06 µM; with EKVX NSCLC it was 14.2 µM; in the test with HCC-2998 colon, 4.52 µM; in the test with SNB-19 CNS it was 3.88 µM; with SK-OV-3 ovarian, 12.7 µM. The TGI in the test on ACHN renal stood at 7.66 µM; in the test with SK-MEL-5 melanoma, 2.15 µM; in the test on MDA-MB-231 breast it was 0.801 µM.

For the compound `CCOc1ccc2nc3cc(N)ccc3c(N)c2c1`, the GI50 in the test with CCRF-CEM leukemia is 3.43 µM and 4.22 µM; in the test on HOP-62 NSCLC it was 1.49 µM and 1.58 µM; in the test on EKVX NSCLC, 9.76 µM and 7.63 µM; with SR leukemia, 2.61 µM and 2.8 µM; in the test on HCC-2998 colon, 3.24 µM and 1.43 µM; with SNB-19 CNS, 0.339 µM and 0.574 µM. For the same compound, the GI50 in the test on SK-OV-3 ovarian is 2.67 µM and 3.65 µM; with ACHN renal it was 7.01 µM and 3.93 µM; in the test with SK-MEL-5 melanoma it was 3.31 µM and 3.03 µM; in the test on MDA-MB-231 breast, 10.2 µM and 4.44 µM. For the same compound, the TGI in the test on CCRF-CEM leukemia is 17.1 µM and 20.9 µM; in the test with HOP-62 NSCLC, 6.84 µM and 6.49 µM; in the test on EKVX NSCLC it was 36.7 µM and 41.4 µM; in the test on SR leukemia, 8.36 µM and 8.48 µM; in the test on HCC-2998 colon, 13.9 µM and 4.72 µM; with SNB-19 CNS it was 2.04 µM and 5 µM. In addition, the TGI in the test on SK-OV-3 ovarian is 14.2 µM and 15.6 µM; with ACHN renal, 48.3 µM and 16.6 µM; in the test with SK-MEL-5 melanoma, 13.3 µM and 12.8 µM; in the test on MDA-MB-231 breast, 22.8 µM and 17.6 µM.

In the case of `Oc1ccc(CCNc2nc3ccccc3c3[nH]c4ccccc4c23)cc1O`, the GI50 with CCRF-CEM leukemia is 1.59 µM; in the test on HOP-62 NSCLC it was 3.78 µM; with EKVX NSCLC it was 8.99 µM; with SR leukemia, 1.92 µM; in the test with HCC-2998 colon, 3.54 µM; with SNB-19 CNS, 3.06 µM. For the same compound, the GI50 is 10.7 µM in the test with SK-OV-3 ovarian, 2.14 µM in the test with ACHN renal, 3.2 µM with SK-MEL-5 melanoma and 2.98 µM in the test with MDA-MB-231 breast. For the same compound, the TGI worked out at 4.35 µM in the test on CCRF-CEM leukemia; 13.5 µM in the test with HOP-62 NSCLC; 37.4 µM in the test on EKVX NSCLC; 5.74 µM in the test on SR leukemia; 14.1 µM in the test with HCC-2998 colon; 11.2 µM in the test with SNB-19 CNS. For the same compound, the TGI in the test on SK-OV-3 ovarian worked out at 22.6 µM; in the test with ACHN renal it was 5.76 µM; in the test with SK-MEL-5 melanoma, 11.5 µM; in the test on MDA-MB-231 breast it was 11.8 µM.

Turning to `CN(C)CCN1C(=O)c2cccc3cc(N)cc(c23)C1=O`, the GI50 in the test with CCRF-CEM leukemia is 3.45 µM; in the test on HOP-62 NSCLC it was 3.08 µM; with EKVX NSCLC, 4.22 µM; with SR leukemia, 3.38 µM and 0.824 µM; in the test with HCC-2998 colon, 4.69 µM; with SNB-19 CNS it was 4.7 µM. Besides, the GI50 in the test with ACHN renal was 1.33 µM; in the test with SK-MEL-5 melanoma, 1.88 µM; in the test on MDA-MB-231 breast, 8.01 µM. Also, the TGI in the test with CCRF-CEM leukemia was > 50.7 µM and 20 µM; with HOP-62 NSCLC, 18.8 µM and 11.4 µM; in the test with EKVX NSCLC, 39.7 µM and 15.3 µM; in the test with SR leukemia, > 40.8 µM and 11 µM; in the test with HCC-2998 colon, 22.1 µM and 12 µM; in the test with SNB-19 CNS, > 88.9 µM and 18.8 µM. For the same compound, the TGI in the test on SK-OV-3 ovarian was 38.4 µM and 17.4 µM; in the test with ACHN renal it was 4.47 µM and 3.63 µM; with SK-MEL-5 melanoma, 4.44 µM and 6.46 µM; in the test on MDA-MB-231 breast, 34.8 µM and 9.64 µM.
